We go through six compounds from publication PMC9388863, “Congeners-Specific Intestinal Absorption Of Microcystins In An In Vitro 3D Human Intestinal Epithelium: The Role Of Influx/Efflux Transporters” (Frontiers in Toxicology, 2022).

*1 amine or outer side, *2 acyl side, *3 side chain or, on linkers, in order; H or OH if unused. Where a SMILES comes first, the peptide text is derived from it. Bridges are numbered along the chain shown (N, C = ends). [ ]: non-standard residue; d: D form. Adda = CO[C@@H](Cc1ccccc1)[C@@H](C)/C=C(C)/C=C/[C@H](N[*:1])[C@H](C)C(=O)[*:2]; dAsp(3S-Me) = C[C@H](C(=O)[*:3])[C@@H](N[*:1])C(=O)[*:2]; d(γGlu) = O=C(O)[C@@H](CCC(=O)[*:2])N[*:1]; NMeDha = C=C(NC)C(=O)O

The subject of data set [1] is EpiIntestinal™ 3D human reconstructed intestinal epithelium. It is filed as in vitro ADME.
For data set [2], the system named is EpiIntestinal™ tissues. It is filed as cell-based, human.
The subject of data set [3] is EpiIntestinal™ tissues. It is filed as in vitro ADME, human.
The next data set addresses T1, P-gp (Homo sapiens, UniProt P08183).
T1 construct: EpiIntestinal™ tissues express all the influx and efflux transporters that are considered relevant; host or cells: EpiIntestinal™ 3D reconstructed human small-intestinal epithelium (normal human primary cells, single donor)
Kind of data set: Transport with/without P-gp inhibitor verapamil in EpiIntestinal™. It is filed as in vitro ADME.

Data set [4] addresses T2, MRP2 (Homo sapiens, UniProt Q92887).
T2 construct: EpiIntestinal™ tissues express all the influx and efflux transporters that are considered relevant; host or cells: EpiIntestinal™ 3D reconstructed human small-intestinal epithelium (normal human primary cells, single donor)
It is filed as in vitro ADME.

The subject of a further data set is Caco-2 cell monolayers. The settings on record: cited from earlier work.
Data set [5] addresses T2, MRP2. The settings on record: cited from earlier work.
The target in a further data set is OATP 2B1 (Homo sapiens, UniProt O94956). It is filed as in vitro ADME.
Chain of OATP 2B1 (O94956 whole entry): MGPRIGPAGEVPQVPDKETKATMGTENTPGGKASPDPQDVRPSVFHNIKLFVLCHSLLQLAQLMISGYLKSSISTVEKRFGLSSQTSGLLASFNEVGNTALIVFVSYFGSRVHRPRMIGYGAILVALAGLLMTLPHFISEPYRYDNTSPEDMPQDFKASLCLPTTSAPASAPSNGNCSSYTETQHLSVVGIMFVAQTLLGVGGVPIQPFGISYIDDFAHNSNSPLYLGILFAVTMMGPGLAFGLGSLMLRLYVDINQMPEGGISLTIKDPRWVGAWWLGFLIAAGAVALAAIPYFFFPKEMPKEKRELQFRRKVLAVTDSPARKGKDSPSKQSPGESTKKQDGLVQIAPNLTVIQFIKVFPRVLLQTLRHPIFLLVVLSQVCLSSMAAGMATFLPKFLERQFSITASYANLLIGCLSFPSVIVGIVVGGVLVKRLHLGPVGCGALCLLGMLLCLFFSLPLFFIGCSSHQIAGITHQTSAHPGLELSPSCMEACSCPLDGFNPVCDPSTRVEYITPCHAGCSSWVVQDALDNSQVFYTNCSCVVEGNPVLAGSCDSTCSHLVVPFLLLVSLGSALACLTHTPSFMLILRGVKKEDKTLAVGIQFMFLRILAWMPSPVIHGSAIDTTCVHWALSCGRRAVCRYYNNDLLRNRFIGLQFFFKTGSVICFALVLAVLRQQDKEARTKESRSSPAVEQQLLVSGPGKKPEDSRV
In the next data set the test system is BCRP. The experiment in a line: in vitro. The settings on record: human, not told.

T2 sequence (Q92887 whole entry): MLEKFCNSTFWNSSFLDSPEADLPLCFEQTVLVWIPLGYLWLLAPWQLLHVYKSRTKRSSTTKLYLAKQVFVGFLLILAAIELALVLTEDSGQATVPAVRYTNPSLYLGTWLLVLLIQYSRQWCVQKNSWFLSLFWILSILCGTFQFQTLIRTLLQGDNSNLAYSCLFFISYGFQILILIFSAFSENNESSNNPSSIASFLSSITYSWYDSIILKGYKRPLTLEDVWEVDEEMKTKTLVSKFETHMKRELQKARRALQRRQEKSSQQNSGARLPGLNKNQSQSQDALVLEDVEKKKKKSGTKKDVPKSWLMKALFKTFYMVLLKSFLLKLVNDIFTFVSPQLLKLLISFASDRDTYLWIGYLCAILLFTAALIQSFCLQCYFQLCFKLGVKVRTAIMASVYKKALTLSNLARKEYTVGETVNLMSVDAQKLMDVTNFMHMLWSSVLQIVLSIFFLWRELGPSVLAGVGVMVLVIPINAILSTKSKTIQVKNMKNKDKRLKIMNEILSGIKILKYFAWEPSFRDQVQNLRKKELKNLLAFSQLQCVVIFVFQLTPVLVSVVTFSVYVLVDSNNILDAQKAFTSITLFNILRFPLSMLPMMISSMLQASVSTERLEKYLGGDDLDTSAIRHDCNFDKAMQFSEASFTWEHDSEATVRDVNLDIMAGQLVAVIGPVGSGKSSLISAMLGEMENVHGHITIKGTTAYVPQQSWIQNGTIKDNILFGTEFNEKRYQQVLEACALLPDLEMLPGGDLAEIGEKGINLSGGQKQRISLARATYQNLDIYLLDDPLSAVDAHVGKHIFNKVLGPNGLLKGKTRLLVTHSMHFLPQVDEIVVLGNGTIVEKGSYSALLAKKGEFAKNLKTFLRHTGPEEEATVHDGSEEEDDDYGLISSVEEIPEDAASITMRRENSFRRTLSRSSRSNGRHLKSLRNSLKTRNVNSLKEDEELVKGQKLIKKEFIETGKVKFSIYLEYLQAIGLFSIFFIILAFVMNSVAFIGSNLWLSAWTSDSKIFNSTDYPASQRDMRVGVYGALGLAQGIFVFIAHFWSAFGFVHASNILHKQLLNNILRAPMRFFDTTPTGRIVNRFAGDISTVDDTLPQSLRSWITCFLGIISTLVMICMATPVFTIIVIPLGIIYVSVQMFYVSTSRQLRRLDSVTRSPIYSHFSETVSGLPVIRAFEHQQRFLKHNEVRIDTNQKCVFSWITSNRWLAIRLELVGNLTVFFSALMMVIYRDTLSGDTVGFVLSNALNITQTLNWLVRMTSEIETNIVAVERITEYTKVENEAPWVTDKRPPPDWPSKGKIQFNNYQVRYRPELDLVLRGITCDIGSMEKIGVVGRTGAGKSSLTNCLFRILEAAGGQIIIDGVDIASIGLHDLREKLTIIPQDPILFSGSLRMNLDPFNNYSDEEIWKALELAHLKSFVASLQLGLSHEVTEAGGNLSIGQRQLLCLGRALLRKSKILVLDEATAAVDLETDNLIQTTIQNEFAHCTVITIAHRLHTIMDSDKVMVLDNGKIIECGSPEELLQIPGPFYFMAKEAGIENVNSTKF
T1 sequence (P08183 whole entry): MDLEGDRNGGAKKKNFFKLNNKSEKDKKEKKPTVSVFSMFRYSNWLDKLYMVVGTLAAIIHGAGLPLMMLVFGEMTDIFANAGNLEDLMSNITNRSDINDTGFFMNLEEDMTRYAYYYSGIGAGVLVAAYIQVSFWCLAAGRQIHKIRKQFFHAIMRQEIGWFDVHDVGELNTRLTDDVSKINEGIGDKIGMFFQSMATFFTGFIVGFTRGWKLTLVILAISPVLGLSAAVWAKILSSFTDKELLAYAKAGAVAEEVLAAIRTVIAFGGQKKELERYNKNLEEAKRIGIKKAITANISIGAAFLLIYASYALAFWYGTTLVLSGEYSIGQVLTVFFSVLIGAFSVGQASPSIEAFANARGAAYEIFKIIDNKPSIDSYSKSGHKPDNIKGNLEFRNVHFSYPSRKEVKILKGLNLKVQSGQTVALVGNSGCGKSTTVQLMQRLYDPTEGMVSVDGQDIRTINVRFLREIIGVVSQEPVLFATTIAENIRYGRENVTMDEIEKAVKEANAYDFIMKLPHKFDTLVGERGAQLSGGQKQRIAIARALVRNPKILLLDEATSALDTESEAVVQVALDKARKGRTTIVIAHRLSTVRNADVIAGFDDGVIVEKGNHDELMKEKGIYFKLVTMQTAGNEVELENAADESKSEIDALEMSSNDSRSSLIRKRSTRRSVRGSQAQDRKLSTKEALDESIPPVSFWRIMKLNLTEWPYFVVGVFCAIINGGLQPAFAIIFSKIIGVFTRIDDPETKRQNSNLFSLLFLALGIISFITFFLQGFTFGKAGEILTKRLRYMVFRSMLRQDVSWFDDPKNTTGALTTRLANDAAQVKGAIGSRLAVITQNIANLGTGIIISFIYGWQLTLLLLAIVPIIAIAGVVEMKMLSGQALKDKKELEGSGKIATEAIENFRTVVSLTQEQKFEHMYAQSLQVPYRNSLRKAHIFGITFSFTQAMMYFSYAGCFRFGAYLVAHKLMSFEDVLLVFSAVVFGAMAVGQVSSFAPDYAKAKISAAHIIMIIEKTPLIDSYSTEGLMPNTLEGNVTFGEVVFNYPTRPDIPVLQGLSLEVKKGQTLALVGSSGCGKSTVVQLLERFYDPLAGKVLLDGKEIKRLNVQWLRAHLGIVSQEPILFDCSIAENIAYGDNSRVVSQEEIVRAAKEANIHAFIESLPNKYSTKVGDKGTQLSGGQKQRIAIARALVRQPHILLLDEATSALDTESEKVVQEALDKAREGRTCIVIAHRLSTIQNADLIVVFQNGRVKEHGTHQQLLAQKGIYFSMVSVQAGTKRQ

For the compound `C=C1C(=O)N[C@H](C)C(=O)N[C@@H](CC(C)C)C(=O)N[C@@H](C(=O)O)[C@H](C)C(=O)N[C@@H](CCCNC(=N)N)C(=O)N[C@@H](/C=C/C(C)=C/[C@H](C)[C@H](Cc2ccccc2)OC)[C@H](C)C(=O)N[C@@H](C(=O)O)CCC(=O)N1C` [MC-LR, Microcystin-LR] (R[Adda][d(γGlu)][NMeDha][dA]L[dAsp(3S-Me)]-OH; lactam N-7), in data set [1], the “absorption (parent compound detected in the BL compartment), % of the administered dose” value (“absorption … % of the administered dose” for short) is “around 5%”; the “amount recovered in the BL compartment at 4 h, percentage of the applied dose” value was found to be 4.6%; the “dependence of Papp on the donor concentration” value (“dependence of Papp” below) is on record as “independent on the donor concentrations”. In the data set on EpiIntestinal™ tissues [2], the “toxicity, measured as barrier integrity with LY” value (“toxicity, measured” below) is listed as “no toxicity”. For the same compound, in the data set with EpiIntestinal™ tissues [3], the “Efflux ratio (ER), Papp BL-AP / Papp AP-BL” value is listed as 3.65. Besides, the “effect of co-administration of verapamil (P-gp inhibitor) on MC transport” value on P-gp is “not affected”. The “effect of cyclosporin on MC transport” value on MRP2 [4] was “significantly decreased the efflux”. The “toxin reaching the basolateral compartment” value in the data set on Caco-2 cell monolayers was 0.3–1.35%.
With Microcystin-YR [MC-YR], in [1], the “absorption … % of the administered dose” value is “around 5%”; the “amount recovered in the BL compartment at 4 h, percentage of the applied dose” value was found to be 4.3%; the “dependence of Papp” value is listed as “independent on the donor concentrations”. For the same compound, the “toxicity, measured” value in the data set on EpiIntestinal™ tissues [2] is listed as “no toxicity”.
Turning to Microcystin-LF [MC-LF], in data set [1], the “amount recovered in the cellular pellet, % of the administered dose” value is reported as “less than 1%” and the “dependence of Papp” value is reported as “dose dependent increase in permeability”. Moreover, the “toxicity, measured” value in the data set with EpiIntestinal™ tissues [2] was “no toxicity”. Also, the “transport (efflux) by MRP2” value on MRP2 [5] was “transported more rapidly than MC-LR and–RR”.
On to Microcystin-RR [MC-RR], for which, in data set [1], the “absorption … % of the administered dose” value was “around 5%”; the “amount recovered in the BL compartment at 4 h, percentage of the applied dose” value is given as 3.6%; the “dependence of Papp” value was “independent on the donor concentrations”; the “permeability coefficient Papp (AP-BL), time course” value amounted to 5.73. In addition, in data set [1], the “time at which toxin was detectable in the receptor fluid” value is given as 30 min. Also, the “toxicity, measured” value in the data set on EpiIntestinal™ tissues [2] was “no toxicity”.
Take Microcystin-LW [MC-LW]: in data set [1], the “amount recovered in the cellular pellet, % of the administered dose” value is listed as “less than 1%” and the “dependence of Papp” value was “dose dependent increase in permeability”. Also, the “toxicity, measured” value with EpiIntestinal™ tissues [2] was “no toxicity”. Besides, in the data set with EpiIntestinal™ tissues [3], the “Efflux ratio (ER), Papp BL-AP / Papp AP-BL” value is recorded as 2.65. On P-gp, the “effect of co-administration of verapamil (P-gp inhibitor) on MC transport” value is “not affected”. Besides, the “effect of cyclosporin on MC transport” value at MRP2 [4] is on record as “not reaching the statistical significance”. Also, the “effect of pravastatin (OATP 2B1 inhibitor) on MC uptake” value on OATP 2B1 is “slightly decreased”.
For `C[C@]12CC[C@H]3[C@@H](CCC4=CC(=O)CC[C@@]43C)[C@@H]1CC[C@@H]2O` [testosterone, Testosterone], the efflux ratio (usually the permeability from basolateral to apical divided by that in the opposite direction, in the common usage) in the data set with BCRP amounted to 1.95.
